From ChEMBL document CHEMBL3525962, “Novel bioactivation mechanism of reactive metabolite formation from phenyl methyl-isoxazoles” (Drug Metab Dispos, 2012)

Test system: Liver microsome
Assay: Drug metabolism in human liver microsomes assessed as oxidative metabolite formation at 10 uM by LC-MS analysis in presence of NADPH
Assay type: ADME

Drug metabolism: metabolite_detected
Compound: Cc1onc(-c2ccccc2)c1NC(=O)NCc1ccc(Cl)cc1Cl
